Where two headings read alike, the source gives them in different places.
Key:
[1] = molecular target: T1, wild-type EGFR (Homo sapiens, UniProt P00533); experiment: pEGFR MSD assay in A431 cells; format: cell-based
T1 construct: endogenous in cells; host or cells: A431
Experimental: A431 and BT474C1-Luci Mono1 cells were seeded in 96-well plates at 20,000 cells/well in DMEM medium containing 1% FBS. After overnight incubation, all cells were treated with compounds at a series of concentrations for 4 hrs. For A431 cell line, an extra stimulation with recombinant human EGF (100 ng/ml for 10 minutes) is applied to activate wild-type EGFR following compound treatment. pEGFR^Y1068 and total EGFR levels were measured by an electro chemiluminescent method (MULTI-SPOT®96 4-Spot HB Prototype EGFR Triplex […]: pEGFR (Y1068), Total EGFR; MESO SCALE DISCOVERY, Cat# N45ZB-1) with MSD SECTOR® Imager, which outputs the ratio of pEGFR/total EGFR for each well. pHER2^Y1248 and total HER2 levels were measured similarly using pHER2 (Y1248) Assay Whole Cell Lysate Kit (MESO SCALE DISCOVERY, Cat# K151CLD-3). The percentage of inhibition was calculated as: % Inhibition = 100 x [1 - (ratio of the sample well - ratio of Min ctrl well)/ (ratio of Max ctrl well - ratio of Min ctrl well)].

[2] = molecular target: T2, BCRP (Homo sapiens, UniProt Q9UNQ0); experiment: BCRP efflux ratio, bi-directional transport assay; format: in vitro ADME
T2 construct: endogenous in cells; host or cells: Caco-2
T2 sequence (Q9UNQ0 whole entry): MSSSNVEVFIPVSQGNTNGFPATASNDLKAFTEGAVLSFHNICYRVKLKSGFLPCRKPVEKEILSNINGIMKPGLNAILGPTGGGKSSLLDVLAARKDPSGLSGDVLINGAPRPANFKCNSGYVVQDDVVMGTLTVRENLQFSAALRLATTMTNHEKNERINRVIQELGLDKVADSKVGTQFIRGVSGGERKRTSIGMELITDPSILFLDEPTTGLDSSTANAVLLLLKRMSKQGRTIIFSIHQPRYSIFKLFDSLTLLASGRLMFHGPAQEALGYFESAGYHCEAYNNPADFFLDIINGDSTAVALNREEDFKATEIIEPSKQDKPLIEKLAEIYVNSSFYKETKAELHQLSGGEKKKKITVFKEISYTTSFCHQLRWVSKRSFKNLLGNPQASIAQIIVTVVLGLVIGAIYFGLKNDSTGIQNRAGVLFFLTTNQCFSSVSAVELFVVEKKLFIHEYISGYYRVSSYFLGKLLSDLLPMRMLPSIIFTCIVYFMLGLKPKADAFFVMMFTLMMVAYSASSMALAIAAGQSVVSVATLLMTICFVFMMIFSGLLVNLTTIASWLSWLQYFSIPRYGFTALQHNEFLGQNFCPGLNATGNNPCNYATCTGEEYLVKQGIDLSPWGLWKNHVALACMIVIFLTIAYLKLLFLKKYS

[3] = Caco-2 passive permeability; format: in vitro ADME; conditions: human, Caco-2, pH 7.4; read-out: Caco-2 Papp (intrinsic passive permeability)
Text: Passive permeability (Papp) characterizes the rate across the cell membrane due to passive diffusion. A high permeability enables the rapid establishment of equilibrium among plasma, CSF, and brain compartments. Except for passive permeability, sufficient unbound drug concentration in the brain is governed by efflux transporters, including P-gp (MDR1, ABCB1) and BCRP, at BBB. Efflux ratio (ER) reflects the liability of a compound to be pumped out of the brain by BBB efflux transporters, which is indicated by the distribution disequilibrium between the plasma and the brain compartments.
Again, DZD1516 and DZ2678 permeability were evaluated in a bi-directional assay in Caco-2 cells at 5 μM. The efflux ratio of DZD1516 and DZ2678, with or without novobiocin (a selective BCRP inhibitor), determined whether DZD1516 or DZ2678 was transported via BCRP in Caco-2 cells. The apical-to-basolateral (A-B) and basolateral-to-apical (B-A) transport of DZD1516/DZ2678 in HBSS (25 mM HEPES, pH 7.4) with 0.1% BSA was measured across Caco-2 cell monolayers in the absence and presence of BCRP inhibitor, novobiocin (30 μM). […] Transport of 5 µM DZD1516/DZ2678 and control compound was determined by quantifying substrate concentration in the incubation medium of the donor compartment at the beginning of the incubation period and both donor and receiver compartments at the end of the incubation period. […]

[4] = tested on: BT474C1-Luci Mono1 LM xenograft; experiment: LM (leptomeningeal metastasis) BT474C1-Luci Mono1 xenograft model; format: in vivo, nude mice
Experimental: The LM model was generated by implanting 10 µl of cell suspension containing 1 × 10^4 BT474C1-Luci Mono1 cells through cisterna magna into each mouse under anaesthesia following similar procedures as described in the literature (31). 17β- ESTRADIOL (90-day release 0.36 mg/pellet) were injected subcutaneously 24 hrs before cell inoculation. Under anaesthesia, mice were placed in the prone position with their neck draped over a cylinder. The head was immobilized with the thumb and mid-finger, with the index finger palpating the space between the occiput and C1. BT474c1-Luci Mono1 cell suspension at 10 µl containing 0.01 million cells were injected intracisternally. When the bioluminescent signal reached > 5 × 10^6 photon/s, animals were randomized for treatment. […]
In both BM and LM models, the day of randomization was defined as Day 0 and the treatment was started one day after randomization. The bioluminescence signals and body weight of the mice were measured once weekly. Relative bioluminescence intensity on a specific day was calculated by dividing the bioluminescence intensity on that day by the bioluminescence intensity on Day 0. The tumour growth inhibition (TGI) was calculated by formula: TGI (%) = (1-(relative bioluminescence intensity of treated group)/(relative bioluminescence intensity of control group)) x 100.Establishment of SC model

[5] = Phase 1 study: CSF penetration (Kp,uu,CSF); format: in vivo, human; conditions: for Kp uu: human, oral
Experimental: Blood samples for PK analyses of DZD1516 and DZ2678 were collected on C0D1. Samples were obtained at pre-dose and at 0.5, 1, 1.5, 2, 2.5, 3, 4, 6, 8, 10, 24, 48, and 72 h after the dose, while for C1D15, samples were obtained at pre-dose and 0.5, 1, 1.5, 2, 2.5, 3, 4, 6, 8, and 10 h after the dose. CSF samples for PK analyses of DZD1516 and its metabolite DZ2678 were collected from patients with BM (C1D15) and LM (C1D15 and C3D1) at steady state (Additional file 1). Plasma and CSF samples were analyzed by LabCorp Madison laboratory (Madison, WI, USA) and LabCorp Shanghai laboratory (Shanghai, China) using a validated LC/MS/MS bioanalytical method to determine DZD1516 and DZ2678 concentrations. Non-compartmental PK analysis was performed using Phoenix WinNonlin (Certara USA Inc., version 8.3.3.33).

T1 sequence (P00533 25-1210): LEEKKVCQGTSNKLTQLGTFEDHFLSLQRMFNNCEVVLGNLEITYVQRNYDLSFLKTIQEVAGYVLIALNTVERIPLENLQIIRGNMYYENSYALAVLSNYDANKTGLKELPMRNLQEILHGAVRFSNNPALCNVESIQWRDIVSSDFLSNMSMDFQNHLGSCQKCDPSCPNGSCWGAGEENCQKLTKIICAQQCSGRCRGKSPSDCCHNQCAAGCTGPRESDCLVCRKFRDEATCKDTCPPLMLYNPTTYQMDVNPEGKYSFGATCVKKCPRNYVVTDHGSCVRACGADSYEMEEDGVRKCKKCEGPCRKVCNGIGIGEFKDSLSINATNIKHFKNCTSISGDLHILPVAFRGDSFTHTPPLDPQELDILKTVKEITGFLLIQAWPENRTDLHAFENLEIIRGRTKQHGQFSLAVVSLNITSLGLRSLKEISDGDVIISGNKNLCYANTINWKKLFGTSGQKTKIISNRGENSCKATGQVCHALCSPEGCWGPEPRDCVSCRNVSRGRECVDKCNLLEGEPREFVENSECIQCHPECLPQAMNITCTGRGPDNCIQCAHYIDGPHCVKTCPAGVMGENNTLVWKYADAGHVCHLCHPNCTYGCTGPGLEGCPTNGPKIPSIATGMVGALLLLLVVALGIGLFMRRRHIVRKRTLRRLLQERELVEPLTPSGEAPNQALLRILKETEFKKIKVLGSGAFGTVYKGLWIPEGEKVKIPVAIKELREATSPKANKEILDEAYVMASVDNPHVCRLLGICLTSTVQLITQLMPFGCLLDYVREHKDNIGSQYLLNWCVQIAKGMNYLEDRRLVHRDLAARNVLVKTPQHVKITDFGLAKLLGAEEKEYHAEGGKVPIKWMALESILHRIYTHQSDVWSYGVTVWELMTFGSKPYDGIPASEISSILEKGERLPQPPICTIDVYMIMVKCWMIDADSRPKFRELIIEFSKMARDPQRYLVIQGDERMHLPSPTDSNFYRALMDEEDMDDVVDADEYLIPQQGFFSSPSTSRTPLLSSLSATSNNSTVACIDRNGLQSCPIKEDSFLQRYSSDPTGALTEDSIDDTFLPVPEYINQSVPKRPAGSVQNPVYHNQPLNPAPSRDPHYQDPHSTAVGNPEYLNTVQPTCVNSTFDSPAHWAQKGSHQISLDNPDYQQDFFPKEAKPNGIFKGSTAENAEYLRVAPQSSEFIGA

Question: What does the source list for `COc1cc(O[C@H]2CCN(C)CC2(F)F)c2c(Nc3ccc(Oc4ccn5ncnc5c4)c(C)c3)ncnc2c1` [DZD1516]?
Answer: IC50 ([1]; A431, 4 hrs treatment, EGF stimulation): 1.46 µM; selectivity against wild-type EGFR ([1]; pEGFR A431 vs pHER2 BT474C1): greater than 300 fold; Efflux ratio BCRP @1 µM ([2]; 1 µM, listed as Cpd-5): 1.3; efflux ratio at 120 min, 1 µM ([2]; human, Caco-2, pH 7.4, 1 µM): < 2; Papp at 120 min, 5 μM [3]: 90 ×10⁻⁶ cm/s; TGI ([4]; 100 mg/kg twice daily): 57%; TGI ([4]; 150 mg/kg twice daily): 81%; CSF conc ([5]; 50 mg, subject 1): 4.89 nmol/L; Free plasma conc ([5]; 50 mg, subject 1): 5.35 nM; CSF conc ([5]; 50 mg, subject 2): 10.2 nmol/L; Free plasma conc ([5]; 50 mg, subject 2): 6.28 nM; CSF conc ([5]; 100 mg, subject 3): 39.3 nmol/L; Free plasma conc ([5]; 100 mg, subject 3): 13.4 nM; CSF conc ([5]; 100 mg, subject 4): 15.5 nmol/L; Free plasma conc ([5]; 100 mg, subject 4): 4.95 nM; CSF conc ([5]; 100 mg, subject 5): 12.7 nmol/L; Free plasma conc ([5]; 100 mg, subject 5): 4.84 nM; CSF conc ([5]; 200 mg, subject 6): 18.3 nmol/L; Free plasma conc ([5]; 200 mg, subject 6): 13.9 nM; CSF conc ([5]; 250 mg, subject 7): 27.9 nmol/L; Free plasma conc ([5]; 250 mg, subject 7): 24.0 nM; CSF conc ([5]; 250 mg, subject 8): 54.2 nmol/L; Free plasma conc ([5]; 250 mg, subject 8): 17.4 nM; Kp uu ([5]; CSF (relative to unbound plasma), patients with CNS metastases, read-out: mean Kp,uu,CSF): 2.1; Kp uu ([5]; CSF / free plasma, 100 mg, subject 4, read-out: Kp,uu,CSF): 3.13; Kp uu ([5]; CSF / free plasma, 100 mg, subject 5, read-out: Kp,uu,CSF): 2.63; Kp uu ([5]; CSF / free plasma, 200 mg, subject 6, read-out: Kp,uu,CSF): 1.31; Kp uu ([5]; CSF / free plasma, 250 mg, subject 7, read-out: Kp,uu,CSF): 1.16; Kp uu ([5]; CSF to free plasma, 50 mg, subject 1, read-out: Kp,uu,CSF): 0.915; Kp uu ([5]; CSF to free plasma, 50 mg, subject 2, read-out: Kp,uu,CSF): 1.62; Kp uu ([5]; CSF to free plasma, 100 mg, subject 3, read-out: Kp,uu,CSF): 2.94; Kp uu ([5]; CSF to free plasma, 250 mg, subject 8, read-out: Kp,uu,CSF): 3.13

Source: PMC10327353 (Breast Cancer Research : BCR, 2023)
